Reference: ChEMBL document CHEMBL2074559, “Inhibition of multidrug resistance-associated protein (MRP) activity by rifampicin in human multidrug-resistant lung tumor cells” (Cancer Lett, 1999)

Experiments:
[1] = biological target: T1, Multidrug resistance-associated protein 1 (Homo sapiens, UniProt P33527); assay: TP_TRANSPORTER: increase in Calcein intracellular accumulation (Calcein: 0.5 uM, Rifampicin: 200 uM) in GLC4/ADR cells; assay type: functional, cell-based; details: glc-4/adr
[2] = biological target: T1, Multidrug resistance-associated protein 1; assay: TP_TRANSPORTER: increase in Calcein intracellular accumulation (Calcein: 0.5 uM, Rifamycin SV: 200 uM) in GLC4/ADR cells; assay type: functional, cell-based; details: glc-4/adr

T1 sequence (P33527 whole entry): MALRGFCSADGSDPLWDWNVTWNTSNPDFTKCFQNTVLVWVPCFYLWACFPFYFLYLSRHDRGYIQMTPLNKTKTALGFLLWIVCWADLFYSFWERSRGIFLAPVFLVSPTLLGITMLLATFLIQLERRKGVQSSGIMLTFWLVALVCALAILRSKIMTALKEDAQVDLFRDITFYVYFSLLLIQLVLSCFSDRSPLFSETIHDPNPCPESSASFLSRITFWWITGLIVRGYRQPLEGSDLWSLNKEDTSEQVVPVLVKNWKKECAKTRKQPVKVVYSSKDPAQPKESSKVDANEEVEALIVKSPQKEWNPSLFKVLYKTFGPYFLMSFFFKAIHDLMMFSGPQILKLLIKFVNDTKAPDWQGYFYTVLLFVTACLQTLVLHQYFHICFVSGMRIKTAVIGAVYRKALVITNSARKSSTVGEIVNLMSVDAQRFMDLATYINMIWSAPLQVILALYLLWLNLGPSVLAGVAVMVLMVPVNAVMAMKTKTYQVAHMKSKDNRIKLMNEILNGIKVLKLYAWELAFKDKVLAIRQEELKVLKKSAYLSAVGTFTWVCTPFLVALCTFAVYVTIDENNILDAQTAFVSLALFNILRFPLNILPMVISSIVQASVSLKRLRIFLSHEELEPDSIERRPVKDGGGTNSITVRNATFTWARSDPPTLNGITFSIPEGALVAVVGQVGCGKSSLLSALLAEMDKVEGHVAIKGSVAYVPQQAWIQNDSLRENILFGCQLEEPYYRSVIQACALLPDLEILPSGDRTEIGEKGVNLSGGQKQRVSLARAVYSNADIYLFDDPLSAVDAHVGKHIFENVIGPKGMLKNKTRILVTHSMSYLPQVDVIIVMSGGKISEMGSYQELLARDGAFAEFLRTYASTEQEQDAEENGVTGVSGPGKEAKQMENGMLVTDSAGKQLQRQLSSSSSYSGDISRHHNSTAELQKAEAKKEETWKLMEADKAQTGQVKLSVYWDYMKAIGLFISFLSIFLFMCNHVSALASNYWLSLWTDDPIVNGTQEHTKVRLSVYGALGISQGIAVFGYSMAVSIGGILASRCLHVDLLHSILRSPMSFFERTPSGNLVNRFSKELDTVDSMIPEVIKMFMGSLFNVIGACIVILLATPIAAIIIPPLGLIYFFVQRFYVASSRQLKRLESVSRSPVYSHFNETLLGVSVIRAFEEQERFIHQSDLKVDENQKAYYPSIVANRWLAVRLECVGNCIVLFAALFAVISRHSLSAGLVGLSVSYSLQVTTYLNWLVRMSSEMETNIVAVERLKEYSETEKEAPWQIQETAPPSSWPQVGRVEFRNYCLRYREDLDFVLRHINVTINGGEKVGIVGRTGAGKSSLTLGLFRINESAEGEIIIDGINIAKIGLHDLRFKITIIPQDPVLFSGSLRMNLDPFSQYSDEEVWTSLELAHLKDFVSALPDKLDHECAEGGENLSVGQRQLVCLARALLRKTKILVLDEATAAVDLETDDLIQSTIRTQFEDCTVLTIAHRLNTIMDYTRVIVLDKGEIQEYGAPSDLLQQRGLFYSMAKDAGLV

| Activity [1] [%] | Activity [2] [%] | Structure (SMILES) |
| --- | --- | --- |
| 110 |  | CO[C@H]1/C=C/O[C@@]2(C)Oc3c(C)c(O)c4c(O)c(c(/C=N/N5CCN(C)CC5)c(O)c4c3C2=O)NC(=O)/C(C)=C\C=C\[C@H](C)[C@H](O)[C@@H](C)[C@@H](O)[C@@H](C)[C@H](OC(C)=O)[C@@H]1C [RIFAMPIN] |
|  | 110 | CO[C@H]1/C=C/O[C@@]2(C)Oc3c(C)c(O)c4c(O)c(cc(O)c4c3C2=O)NC(=O)/C(C)=C\C=C\[C@H](C)[C@H](O)[C@@H](C)[C@@H](O)[C@@H](C)[C@H](OC(C)=O)[C@@H]1C [RIFAMYCIN] |
